Earlier results, collected in patent publication US20210386741A1, “FORMULATIONS OF IBRUTINIB” (Zhuhai Beihai Biotech Co., Ltd., priority 2016, published 2021).

How the values were obtained:
[1] = oral
human plasma protein = conditions: in vitro, no concentration dependence in the range of 50 to 1000 ng/mL

- Absolute bioavailability ([1]; fasted condition (n=8), 90% CI=2.1−3.9): 2.9%
- change of absolute bioavailability when combined with a meal ([1]; with a meal versus fasted): doubled
- increase of AUC on administration with food ([1]; with food compared with after overnight fasting): approximately 2 fold
- reversible binding to human plasma protein (human plasma protein): 97.3%
- solubility in water: practically insoluble in water
Structure (SMILES): C=CC(=O)N1CCC[C@@H](n2nc(-c3ccc(Oc4ccccc4)cc3)c3c(N)ncnc32)C1 [ibrutinib]
